One data set has as its target T1, EGFR kinase (Homo sapiens, UniProt P00533).
T1 construct: purchased Reaction Biology Co. (Kinase HotSpot service)
Briefly: EGFR kinase inhibition assay (HotSpot). It is filed as biochemical. Particulars: for inhibition at 10 µM / Average % Enzyme Inhibition (Relative to DMSO Controls) at 10 µM: 10 µM compound; for inhibition at 10 µM: 10 µM ATP as printed, read-out: Average % Enzyme Inhibition (Relative to DMSO Controls) at 10 µM; for Average % Enzyme Inhibition (Relative to DMSO Controls) at 10 µM: 10 M [sic] ATP.

Another data set has as its target T2, EphB3 kinase (Homo sapiens, UniProt P54753).
T2 construct: purchased Reaction Biology Co. (Kinase HotSpot service)
T2 sequence (P54753 34-998): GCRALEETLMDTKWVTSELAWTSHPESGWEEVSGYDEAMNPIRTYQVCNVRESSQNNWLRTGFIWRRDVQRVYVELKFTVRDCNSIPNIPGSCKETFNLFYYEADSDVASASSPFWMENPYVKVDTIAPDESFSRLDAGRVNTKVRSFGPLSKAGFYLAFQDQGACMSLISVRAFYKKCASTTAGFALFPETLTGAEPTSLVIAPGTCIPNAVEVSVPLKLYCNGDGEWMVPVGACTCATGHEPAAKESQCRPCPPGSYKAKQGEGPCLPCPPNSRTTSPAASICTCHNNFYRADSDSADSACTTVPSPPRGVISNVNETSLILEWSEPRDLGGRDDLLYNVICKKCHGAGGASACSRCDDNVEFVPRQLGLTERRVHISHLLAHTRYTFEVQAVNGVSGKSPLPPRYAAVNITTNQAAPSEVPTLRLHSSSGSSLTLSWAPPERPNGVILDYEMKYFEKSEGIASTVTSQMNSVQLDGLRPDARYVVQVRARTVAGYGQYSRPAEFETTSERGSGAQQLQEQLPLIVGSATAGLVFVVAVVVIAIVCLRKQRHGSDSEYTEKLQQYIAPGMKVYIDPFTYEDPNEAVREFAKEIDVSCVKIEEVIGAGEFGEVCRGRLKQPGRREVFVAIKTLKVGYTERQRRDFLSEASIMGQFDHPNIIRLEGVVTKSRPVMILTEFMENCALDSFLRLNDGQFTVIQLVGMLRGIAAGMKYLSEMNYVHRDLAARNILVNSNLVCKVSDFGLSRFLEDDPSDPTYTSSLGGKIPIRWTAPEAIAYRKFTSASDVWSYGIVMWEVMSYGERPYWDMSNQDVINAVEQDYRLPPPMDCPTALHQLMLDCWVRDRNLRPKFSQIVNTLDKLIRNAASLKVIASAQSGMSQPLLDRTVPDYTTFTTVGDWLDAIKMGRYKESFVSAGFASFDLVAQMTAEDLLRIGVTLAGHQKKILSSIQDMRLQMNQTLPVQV
Briefly: EphB3 kinase inhibition assay (HotSpot). The settings on record: EphB3 kinase, 10 µM compound, 10 µM ATP; read-out: Average % Enzyme Inhibition at 10 µM (Relative to DMSO Control). It is filed as biochemical. Here is the method: The synthesized compounds were subjected to in vitro screening over EphB3 kinase. A single dose of 10 µM concentration of each target compound was used in EphB3 kinase inhibition assay, at 10 µM ATP, applying HotSpot^SM technology.
The HotSpot assay platform contains specific kinase/substrate pairs along with required cofactors. Base reaction buffer: 20 mM Hepes (pH 7.5), 10 mM MgCl2, 1 mM EGTA, 0.02% Brij35, 0.02 mg/mL BSA, 0.1 mM Na3VO4, 2 mM DTT, 1% DMSO. The tested compounds were dissolved in 100% DMSO to specific concentration. The serial dilution was conducted by Integra Viaflo Assist in DMSO (Sigma-Aldrich, Burlington, MA, USA). The reaction mixture containing the examined compound and 33P-ATP was incubated at room temperature for 2 h, and radioactivity was detected by filter-binding method. Kinase activity data were expressed as the percent remaining kinase activity in test samples compared to vehicle (dimethyl sulfoxide) reactions. IC50 values and curve fits were obtained using Prism (GraphPad Software, San Diego, CA, USA).

Setting [1] is: EGFR kinase, dose dependent assay, read-out: IC50.
The mark [2] stands for this setting: EGFR, read-out: EC50 of the curve fit printed in Figure 6 (IC50 per legend).

Read-outs that look alike come from different tables or passages of the source.

This is an account of results in paper PMC8708751, “Hit Identification of a Novel Quinazoline Sulfonamide as a Promising EphB3 Inhibitor: Design, Virtual Combinatorial Library, Synthesis, Biological Evaluation, and Docking Simulation Studies” (Pharmaceuticals, 2021).

T1 sequence (P00533 25-1210): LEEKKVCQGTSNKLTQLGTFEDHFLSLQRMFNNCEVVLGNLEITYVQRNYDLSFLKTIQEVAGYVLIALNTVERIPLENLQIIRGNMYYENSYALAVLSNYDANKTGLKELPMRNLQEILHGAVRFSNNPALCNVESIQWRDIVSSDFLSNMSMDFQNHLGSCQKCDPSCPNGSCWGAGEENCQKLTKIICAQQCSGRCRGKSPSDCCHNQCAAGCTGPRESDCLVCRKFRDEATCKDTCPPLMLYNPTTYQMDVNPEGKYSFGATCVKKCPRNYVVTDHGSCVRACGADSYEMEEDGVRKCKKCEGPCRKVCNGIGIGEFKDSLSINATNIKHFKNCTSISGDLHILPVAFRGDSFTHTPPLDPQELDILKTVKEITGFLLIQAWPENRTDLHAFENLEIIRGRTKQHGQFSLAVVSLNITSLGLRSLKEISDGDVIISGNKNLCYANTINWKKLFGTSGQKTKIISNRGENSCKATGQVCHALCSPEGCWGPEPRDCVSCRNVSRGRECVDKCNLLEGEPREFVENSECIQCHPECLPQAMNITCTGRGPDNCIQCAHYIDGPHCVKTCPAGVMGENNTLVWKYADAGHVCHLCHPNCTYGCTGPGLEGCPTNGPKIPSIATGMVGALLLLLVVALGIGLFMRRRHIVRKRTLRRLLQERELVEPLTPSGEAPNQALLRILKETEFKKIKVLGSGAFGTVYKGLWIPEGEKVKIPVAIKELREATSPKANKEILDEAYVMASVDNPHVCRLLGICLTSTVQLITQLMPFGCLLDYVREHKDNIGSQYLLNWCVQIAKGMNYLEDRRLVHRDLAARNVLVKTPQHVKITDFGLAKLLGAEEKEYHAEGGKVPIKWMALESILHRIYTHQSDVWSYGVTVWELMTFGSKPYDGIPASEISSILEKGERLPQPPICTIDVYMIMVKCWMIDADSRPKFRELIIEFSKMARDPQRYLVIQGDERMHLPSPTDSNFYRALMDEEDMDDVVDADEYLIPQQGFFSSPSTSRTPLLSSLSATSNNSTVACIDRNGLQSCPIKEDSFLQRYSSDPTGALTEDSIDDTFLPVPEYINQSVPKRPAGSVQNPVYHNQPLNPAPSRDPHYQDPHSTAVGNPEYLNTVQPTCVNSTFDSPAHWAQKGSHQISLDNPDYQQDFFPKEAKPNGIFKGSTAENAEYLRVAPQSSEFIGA

`NS(=O)(=O)c1cccc(Nc2ncnc3ccc(-c4cccnc4)cc23)c1` [Compound 4f, 3-((6-(Pyridin-3-yl)quinazolin-4-yl)amino)benzenesulfonamide] gave a melting point of 320 to 321.5 °C. The inhibition at 10 µM on EGFR kinase (EGFR kinase) stood at 4.57 ± 2.16%. Also, the inhibition at 10 µM on EphB3 kinase worked out at 23.5 ± 5.36%.
For `NS(=O)(=O)c1ccc(Nc2ncnc3ccc(-c4cccnc4)cc23)cc1` [Compound 4a, 4-((6-(Pyridin-3-yl)quinazolin-4-yl)amino)benzenesulfonamide] the same measures were 315.1 to 316.2 °C, 0.56 ± 4.32% and 25.81 ± 0.24%.
For `NS(=O)(=O)c1ccc(Nc2ncnc3cc(-c4ccc(CN5CCOCC5)cc4)ccc23)cc1` [Compound 4d, 4-((7-(4-(Morpholinomethyl)phenyl)quinazolin-4-yl)amino)benzenesulfonamide], the melting point fell in the range of 228.1 to 229.8 °C. At EGFR kinase (EGFR kinase), the inhibition at 10 µM was above 50% and the “Average % Enzyme Inhibition (Relative to DMSO Controls) at 10 µM” value turned out to be 65.76 ± 0.98%. Further, at EGFR kinase (setting [1]), the IC50 is 2760 nM. The IC50 on EGFR kinase (setting [2]) came to 2760 nM. Moreover, the inhibition at 10 µM on EphB3 kinase worked out at 18.9 ± 1.09%.
For the compound `NS(=O)(=O)c1ccc(Nc2ncnc3ccc(Br)cc23)cc1` [Compound 3a, 4-((6-Bromoquinazolin-4-yl)amino)benzenesulfonamide], the melting point fell in the range of 322.2 to 324.5 °C. Moreover, at EGFR kinase (EGFR kinase), the inhibition at 10 µM was -13.2 ± 4.31%. Further, on EphB3 kinase, the inhibition at 10 µM was 26.97 ± 0.24%.
With `NS(=O)(=O)c1ccc(Nc2ncnc3ccc(-c4ccc(C=O)o4)cc23)cc1` [Compound 4b, 4-((6-(5-Formylfuran-2-yl)quinazolin-4-yl)amino)benzenesulfonamide], the inhibition at 10 µM on EGFR kinase (EGFR kinase) is 25.2 ± 1.25%; at EphB3 kinase, 26.7 ± 0.45%.
The compound `NS(=O)(=O)c1cccc(Nc2ncnc3cc(-c4cccc(CN5CCOCC5)c4)ccc23)c1` [Compound 4e, 3-((7-(3-(Morpholinomethyl)phenyl)quinazolin-4-yl)amino)benzenesulfonamide] had a melting point of 267.5 to 269 °C. Further, at EGFR kinase (EGFR kinase), the inhibition at 10 µM is above 50% and the “Average % Enzyme Inhibition (Relative to DMSO Controls) at 10 µM” value is 63.28 ± 0.21%. Also, the 50% inhibitory concentration (IC50) at EGFR kinase (setting [1]) is 1060 nM. In addition, on EGFR kinase (setting [2]), the IC50 is 1060 nM. Also, the inhibition at 10 µM on EphB3 kinase is -21.35 ± 0.09%.

As usually defined, the melting point is the temperature, or range, at which the solid turns liquid. Usually inhibition stands for the relative decrease from the control value, in per cent. Broadly, the IC50 is the concentration that gives 50% inhibition.
